Consider two compounds from PMC11589570, “Critical assessment of LC3/GABARAP ligands used for degrader development and ligandability of LC3/GABARAP binding pockets” (Nature Communications, 2024).

Test [1] addresses LC3. Also noted: method as in Dong et al. The conditions noted are these: higher protein and compound concentrations; ref Dong et al.; read-out: Kd (ITC); cited from earlier work.
Test [2] addresses GABARAPL2 (Homo sapiens, UniProt P60520). Nature of the test: biochemical.

pKd: −log10 of the molar value.

Chain of GABARAPL2 (P60520 whole entry): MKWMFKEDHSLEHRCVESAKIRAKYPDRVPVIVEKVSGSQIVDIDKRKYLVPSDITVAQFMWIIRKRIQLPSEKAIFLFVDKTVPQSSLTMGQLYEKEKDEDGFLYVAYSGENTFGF

On to `Cc1ccc(C(=O)N(CCCN)[C@@H](c2nc3cc(Cl)ccc3c(=O)n2Cc2ccccc2)C(C)C)cc1` [compound 3, (R)-N-(3-aminopropyl)-N-(1-(3-benzyl-7-chloro-4-oxo-3,4-dihydroquinazolin-2-yl)−2-methylpropyl)−4-methylbenzamide], for which the pKd in test [1] was approximately 4.92.

In test [2], `O=C1Nc2ccc(I)cc2C1=Cc1cc(Br)c(O)c(Br)c1` [compound 4] gave a pKd of 4.52 to 4.82.

As a reminder, the pKd is the Kd on a negative log10 scale, so that one unit is a factor of ten.
